What was measured:
[1] = Hypoglycemic potency (United States Pharmacopeia method); assay type: in vivo; conditions: USP Vol. 18 hypoglycemic potency assay; relative to unmodified insulin
Procedure: Hypoglycemic potency of the modified insulin was measured as described in "The United States Pharmacopeia", Mark Publishing Co., Vol. 18, pp. 883-884 (1964). Bioactivity was 62% as compared to unmodified insulin.

[2] = Aggregation tendency by turbidity of the solution (absorbance at 400 nm); assay type: physicochemical; conditions: 0 to 0.1 A non-aggregated, above 0.3 aggregated
Procedure: The tendency of modified insulin to aggregate was assessed by measuring the turbidity of the solution. This method is based on the work of Leach and Scheraga (S. J. Leach and H. A. Scheraga (1964) J. Amer. Chem. Soc. 82, 4790-4792) who stated that absorbancy observed in insulin solutions between 350 and 600 nm is due to light scattering of aggregated particles. […] After deaeration under vacuo for 60 min. 1 ml of this solution was diluted with 1 ml of PBS, and the turbidity was measured on a Hewlett Packard spectrophotometer type HP 8590, utilizing as a blank a non-aggregated sample diluted by 1 volume of 8M guanidine hydrochloride. Aggregation was measured by the difference in absorbance determined at 400 nm for the two samples. Non-aggregated samples gave absorbance values of 0 to 0.1 Absorbance Unit(A), Values above 0.3 were considered to be aggregated.

Substance	Bioactivity (hypoglycemic potency) as compared to unmodified insulin [1]	Turbidity (difference in absorbance at 400 nm) ([2]; dissolved in PBS, passed 50 times through syringe with 26G needle, blank in guanidine hydrochloride)	Turbidity (absorbance at 400 nm) ([2]; dissolved in distilled water, treated by the same procedure)
Example 1: porcine sodium insulin sulphated with sulfuric acid and N,N' dicyclohexyl carbodiimide in dimethylformamide	62%	0.08 A	–
Example 4: porcine sodium insulin phosphorylated with concentrated phosphoric acid and DCC in DMF	85%	–	–
unmodified porcine sodium insulin: unmodified porcine sodium insulin, starting material and comparator [reference compound]	–	–	0.51 A

Source: patent US4534894A, “Process for sulphation and phosphorylation of proteins and peptides” (The Rockefeller University, priority 1982, dated 1985)
